From patent US5854388A, “Angiotensin IV peptides and receptor” (Washington State University Research Foundation, priority 1994, dated 1998)
Entries after “also recorded” stand apart in the source; their conditions may differ. Read-outs that look alike come from different tables or passages of the source. Positions of bridges follow the written chain, without caps; N, C: chain ends. Non-standard residues stand in square brackets, D forms with d. Residues, ends and D or L forms follow the SMILES beside them. No end group written: not given here. *: point of attachment. Ileψ(thiazoline)Cys = CC[C@H](C)[C@H](N)C1=N[C@H](C(=O)*)CS1; NMeI = CC[C@H](C)[C@H](NC)C(=O)O; dOrn = NCCC[C@@H](N)C(=O)O; Nle = CCCC[C@H](N)C(=O)O; Orn = NCCC[C@H](N)C(=O)O; GABA = NCCCC(=O)O

Columns and labels:
[1] = target: T1, AT4 receptor (Bos taurus, UniProt F1N1Q8); test: 125I-AIV binding and competition, bovine adrenal cortical membranes
T1 sequence (F1N1Q8 1-1022): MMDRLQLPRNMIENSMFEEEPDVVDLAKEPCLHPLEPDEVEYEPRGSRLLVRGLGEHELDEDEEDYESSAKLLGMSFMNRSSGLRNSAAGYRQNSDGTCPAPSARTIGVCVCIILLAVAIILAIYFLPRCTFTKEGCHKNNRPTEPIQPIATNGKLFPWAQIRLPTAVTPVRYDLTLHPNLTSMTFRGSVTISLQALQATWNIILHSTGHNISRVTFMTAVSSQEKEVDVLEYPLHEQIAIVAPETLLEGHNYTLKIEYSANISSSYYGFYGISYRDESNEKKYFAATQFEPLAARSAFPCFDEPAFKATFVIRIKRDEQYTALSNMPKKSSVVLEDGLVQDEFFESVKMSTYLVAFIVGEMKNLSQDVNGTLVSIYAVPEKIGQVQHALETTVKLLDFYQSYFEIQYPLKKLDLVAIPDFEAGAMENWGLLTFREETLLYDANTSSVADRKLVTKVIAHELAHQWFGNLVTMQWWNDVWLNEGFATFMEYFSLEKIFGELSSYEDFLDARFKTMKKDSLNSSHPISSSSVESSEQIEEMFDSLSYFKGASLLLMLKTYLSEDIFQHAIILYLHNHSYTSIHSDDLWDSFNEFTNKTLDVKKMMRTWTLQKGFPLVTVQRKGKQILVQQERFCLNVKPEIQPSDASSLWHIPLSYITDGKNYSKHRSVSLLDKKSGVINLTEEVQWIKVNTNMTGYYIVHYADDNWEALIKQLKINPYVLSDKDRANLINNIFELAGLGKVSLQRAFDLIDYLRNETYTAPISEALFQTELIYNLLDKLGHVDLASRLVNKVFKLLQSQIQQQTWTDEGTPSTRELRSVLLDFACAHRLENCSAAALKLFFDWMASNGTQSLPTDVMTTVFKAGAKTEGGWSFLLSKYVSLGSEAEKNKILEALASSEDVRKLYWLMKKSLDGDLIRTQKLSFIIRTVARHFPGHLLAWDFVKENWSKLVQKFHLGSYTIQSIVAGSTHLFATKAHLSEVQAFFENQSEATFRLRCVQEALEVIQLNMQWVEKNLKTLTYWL

[2] = target: T1, AT4 receptor; test: 125I-AIV binding and competition, solubilized bovine adrenal cortical receptor
[3] = target: T1, AT4 receptor; test: 125I-AIV binding and competition, coronary venular endothelial cell (CVEC) membranes; design: species or system bovine
[4] = arterial and venous blood in man; cited from earlier work
[5] = target: T2, AT1 receptor (AII receptor) (Bos taurus, UniProt P25104); format: binding, bovine; details: competition
T2 construct: from tissue; host or cells: bovine adrenal cortex membranes
T2 sequence (P25104 1-359): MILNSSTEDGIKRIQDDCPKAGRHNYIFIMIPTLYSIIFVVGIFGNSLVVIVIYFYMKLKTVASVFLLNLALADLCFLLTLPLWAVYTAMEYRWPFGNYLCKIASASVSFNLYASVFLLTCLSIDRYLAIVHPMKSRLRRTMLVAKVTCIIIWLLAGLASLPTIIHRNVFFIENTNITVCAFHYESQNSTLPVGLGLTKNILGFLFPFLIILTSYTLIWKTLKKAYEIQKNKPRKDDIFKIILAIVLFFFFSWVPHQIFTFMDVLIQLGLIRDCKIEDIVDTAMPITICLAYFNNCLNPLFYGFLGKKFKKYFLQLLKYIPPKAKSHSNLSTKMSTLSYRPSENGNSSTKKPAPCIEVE

[6] = test system: rat kidney; test: Renal cortical blood flow (laser doppler) and arterial pressure after infusion into the renal artery; format: in vivo
[7] = Metabolism by rat kidney membranes / homogenates
[8] = read-out: 125I-AIV Binding (Ki)

In the case of CC[C@H](C)[C@H](NC(=O)[C@@H](N)Cc1ccc(O)cc1)C(=O)N[C@@H](Cc1cnc[nH]1)C(=O)N1CCC[C@H]1C(=O)N[C@@H](Cc1ccccc1)C(=O)O [AII(4-8), YIHPF] (H-YIHPF-OH), the Ki [1, 8] is reported as over 1000 nM, the Ki [2] is reported as over 1000 nM and the Ki ([3]; competition of 0.5 nM 125I-AIV) is reported as 253 ± 89.1 nM. For the same compound, the half-lives [4] was 2.4 min.
With CC[C@H](C)[C@H](NC(=O)[C@@H](N)Cc1ccc(O)cc1)C(=O)N[C@@H](Cc1c[nH]cn1)C(=O)N1CCC[C@H]1C(=O)N[C@@H](Cc1ccccc1)C(=O)O [AII(4-8), YIHPF] (H-YIHPF-OH; N-terminus and C-terminus assumed) the “decrease in binding affinity relative to AIV” value [1] was 1000 fold.
With CC[C@H](C)[C@H](N)C1=N[C@H](C(=O)N[C@@H](CC(C)C)C(=O)N[C@H](CCC(=O)O)C(=O)N[C@H](C(=O)N[C@H]2CCCCNC(=O)[C@H](CC(N)=O)NC(=O)[C@@H](CC(=O)O)NC(=O)[C@H](Cc3cnc[nH]3)NC(=O)[C@@H](Cc3ccccc3)NC(=O)[C@H]([C@@H](C)CC)NC(=O)[C@@H](CCCN)NC2=O)[C@@H](C)CC)CS1 [Bacitracin, ICLEIKOIFHDD, reference compound] ({Ileψ(thiazoline)Cys}-L[dE]IK[dOrn]I[dF]H[dD]N; lactam 4-C) the “effect on binding of AIV ligand to the AT4 receptor” value [1] was “inhibited”.
In the case of CC[C@H](C)[C@H](NC)C(=O)N[C@@H](Cc1ccc(O)cc1)C(=O)N[C@H](C(=O)N[C@@H](Cc1c[nH]cn1)C(=O)N1CCC[C@H]1C(=O)N[C@@H](Cc1ccccc1)C(=O)O)[C@@H](C)CC [CH3 -I1 YIHPF, N-methyl-Ile1 YIHPF] (H-[NMeI]YIHPF-OH), the “decrease in affinity relative to I1YIHPF” value ([1]; N-methylation of Ile1) is reported as 67 fold.
In the case of CCCCc1nc(Cl)c(CO)n1Cc1ccc(-c2ccccc2-c2nn[nH]n2)cc1 [DuP 753, reference compound], the Ki [1, 8] is reported as over 100000 nM, the Ki [5] is reported as 31 nM and the Ki [2] is reported as over 100000 nM. For the same compound, the Ki ([3]; unit inferred) was over 100000 nM.
In the case of DYIHPF, the Kd [1] is reported as over 1000 nM and the “binding affinity for the AT4 receptor (in words)” value (“binding affinity … (in words)” below) [1] is reported as “virtually no affinity”.
For F1 YIHPF (FYIHPF), the “decrease in binding affinity relative to AIV” value [1] was 4 fold.
In the case of GABA-YIHPF ([GABA]YIHPF), the “decrease in binding affinity relative to AIV” value [1] is reported as 250 fold.
In the case of IYIHPF [I1 YIHPF], the “binding affinity … (in words)” value [1] is reported as “only a slight change (an increase) in binding affinity; also recorded: nearly the same binding affinity”.
For KYIHPI [KYIHPI6], the “binding affinity … (in words)” value [1] was “lower affinity than the parent KYIHPF6” and the “binding affinity … (in words)” value ([1]; listed as Lys1 Ile6 -AIV) was “lower affinity than Lys1 -AIV”.
With NleYIHPF ([Nle]YIHPF) the “maximum increase in renal blood flow” value ([6]; 0.05 pmole) was 19%, the “maximum increase in renal blood flow” value ([6]; 0.1 pmole) was 19% and the “maximum increase in renal blood flow” value ([6]; 10 pmole) was 21%. The “increase in renal blood flow” value ([6]; 100 pmole) was 30%, the “effect on arterial blood pressure (in words)” value ([6]; rat, in vivo) was “no effect on mean arterial pressure” and the “agonist / antagonist activity (in words)” value ([6]; renal blood flow response compared to AIV, listed as Nle1 -AIV) was “only a partial agonist”. The “agonist / antagonist activity (in words)” value ([6]; renal blood flow response compared to AIV, listed as Nle1 YIHPF) was “partial agonist”.
With OrnYIHPF ([Orn]YIHPF) the “binding affinity … (in words)” value [1] was “higher binding affinity than AIV”.
With PYIHPF the “decrease in binding affinity relative to AIV” value [1] was 8 fold.
For “V1 Y2 I3 H4 P5 F6 H7 (VYIHPFH) [AI(3-9)]”, the “binding affinity … (in words)” value [1] was “did not alter binding significantly” and the “binding affinity … (in words)” value ([1]; listed as V1 Y2 I3 H4 P5 F6 H7) was “does not alter binding”.
For “V1 Y2 I3 H4 P5 F6 H7 L8 (VYIHPFHL) [AI(3-10)]”, the “decrease in binding affinity relative to AIV” value [1] was 2 fold.
For VF2 IHPF (VFIHPF), the “binding affinity … (in words)” value [1] was “very low affinity”.
With “VPIHYF [Phe2 Tyr6 AIV, positions of the Phe and Tyr residues in AIV reversed]” the “binding affinity … (in words)” value [1] was “very low binding affinity”.
With VYIH the “decrease in binding relative to VYIHP” value [1] was 21 fold and the Ki ([1]; read-out: Ki) was over 500 nM.
In the case of VYIHP [des Phe6 -AIV], the “binding affinity … (in words)” value [1] is reported as “did not alter binding significantly”, the “binding affinity … (in words)” value ([1]; listed as V1 Y2 I3 H4 P5) is reported as “does not alter binding significantly” and the “binding to solubilized AT4 receptor (in words)” value ([2]; listed as VYIHP) is reported as “retained AT4 receptor binding activity”. For the same compound, the “binding to solubilized AT4 receptor (in words)” value ([2]; listed as desPhe6 -AIV) was “still retained AIV binding activity”, the “increase in Ki (decrease in affinity) compared with AIV” value [3] was 7 fold and the Ki ([3]; competition of 0.5 nM 125I-AIV, read-out: Ki) was 7.3 ± 1.2 nM.
For VYIHPI [VYIHPI6], the “binding affinity … (in words)” value [1] was “higher affinity than the parent VYIHPF; also recorded: higher binding affinity for the AT4 receptor than AIV”.
With V[D-Y2 ]IHPF [D-Y2 AIV] the “binding affinity … (in words)” value [1] was “very low affinity; also recorded: low binding affinity” and the Ki ([2]; read-out: Ki) was 416 nM.
In the case of “^+ H3 N-Val(CH2 NH)Tyr-Val(CH2 NH)-His-Pro-Phe-COO^- (H-VYVHPF-OH; also: reduced CH2-NH bonds: Val1-Tyr2, Val3-His4) [Val1 Val3 AIV]”, the “binding affinity … (in words)” value [1] is reported as “affinity equal to or better than VYIHPF; also recorded: equal or better affinity than AIV”, the Ki ([2]; read-out: Ki) is reported as 1.29 nM and the “agonist / antagonist activity (in words)” value ([6]; rat, in vivo) is reported as “potent antagonist of AT4 receptor activity”. For the same compound, the “effect of preinfusion on blood flow response to another ligand” value ([6]; rat, in vivo) was “completely blocks Lys^1 AIV-induced increases in blood flow”, the “effect on arterial blood pressure (in words)” value ([6]; rat, in vivo) was “did not alter blood pressure or renal blood flow” and the “effect on renal blood flow (in words)” value ([6]; rat, in vivo) was “did not alter blood pressure or renal blood flow”. For the same compound, the “stability on exposure to rat kidney (in words)” value [7] was “totally resistant to enzymatic degradation”, the “stability on exposure to rat kidney (in words)” value ([7]; listed as divalinal AIV) was “enhanced metabolic stability” and the remaining intact ([7]; rat kidney membranes, 4 hr, room temperature) was 100%.
